Tested on: SETDB1, CSV, ATF7IP, IMPα1 in H1299 cells
Experiment: IFA microscopy of SETDB1, CSV, ATF7IP, IMPα1 in H1299
Type: cell-based, human
Design: dose or concentration left out as unconfirmed
Method: FIG. 18. […] Protein targets were localized by ASI digital pathology. […] Protein targets were localized by ASI digital pathology.
IFA microscopy and cell culture methods were performed as described in detail, above.

Mithramycin A [MTH]
expression of mesenchymal metastatic marker CSV: induced an increase
nuclear expression of SETDB1: no effect
